Assay results from paper PMC5225203, “Multiparameter toxicity assessment of novel DOPO-derived organophosphorus flame retardants” (Archives of Toxicology, 2016).

Key:
[1] = system: human dorsal root ganglia-like cells (hESC-H9 derived peripheral neurons); experiment: Peripheral neurotoxicity test (PeriTox-test); format: cell-based; details: 48 h
Description: The human pluripotent stem cell (hPSC) line H9 (WA09 line) was obtained from WiCell (Madison, WI, USA). Import of cells and experiments was authorized under license #170-79-1-4-27 (Robert Koch Institute, Berlin, Germany). Cells were cultured according to standard protocols (Thomson et al. [1998]) and differentiated into dorsal root ganglia-like cells as described earlier (Chambers et al. [2012]), with slight modifications. Briefly, neural differentiation was promoted by adding neural differentiation medium and the combination of 6 small molecule pathway inhibitors [noggin (35 ng/mL; R&D Systems, Minneapolis, MN, USA), dorsomorphin (600 nM; Tocris Bioscience, Bristol, UK), […] (10 μM; Tocris Bioscience, Bristol, UK), CHIR99021 (1.5 µM; Axon Medchem, Vienna, VA, USA), SU5402 (1.5 µM; Tocris Bioscience, Bristol, UK), and DAPT (5 µM; Merck, Darmstadt, Germany)]. The cells were cryopreserved on day 8′ of differentiation (DoD 8′). For each experiment, cells were thawed in neural differentiation medium supplemented with CHIR99021 (1.5 µM), SU5402 (1.5 µM), and DAPT (5 µM). For the peripheral neurotoxicity test (PeriTox-test), test chemicals were serially diluted in differentiation medium containing BDNF, GDNF, and NGF (25 ng/mL; R&D Systems, Minneapolis, USA) and added to the cells on day 3 after thawing. After 48 h, neurite area and viability were assessed as described earlier (Krug et al. [2013]). Briefly, cells were loaded with 1 µM calcein-AM and 1 µg/mL H-33342 for 1 h at 37 °C. For image acquisition, an Array-Scan VTI HCS (high content screening) microscope (Cellomics, Waltham, MA USA) was used. In an automated procedure, all H-33342^+/calcein^+ cells were analyzed as viable cells. In channel 1, H-33342^+ nuclei were detected according to their size, area, shape, and intensity at excitation/emission wavelengths of 365 ± 50/535 ± 45. The nuclei borders were expanded radially by 3.2 µm to define a virtual cell soma area (VCSA). In channel 2 (at excitation/emission wavelengths of 474 ± 40/535 ± 45), all calcein^+ pixels were identified as viable cell structures (VCS). An algorithm was applied that used the VCSA as a filter in the calcein channel and subtracted it from the VCS. The remaining pixels (VCS-VCSA) in the calcein channel were defined as neurite area and were represented relative to the untreated control.

[2] = Penetration into porcine skin by confocal Raman spectroscopy; format: in vitro ADME; details: 1 h; for maximal penetration depth: porcine skin surface, 400 µM; for penetration/accumulation into porcine ear skin: topical 400 µM, confocal Raman
Description: The vertical distribution of topically applied DOPO derivatives and reference compounds was investigated on segments of porcine ears from freshly slaughtered animals. The skin was separated from the cartilage, depilated, and placed into Franz diffusion cells (1 cm^2). The acceptor solution was PBS buffer containing 2 % IGEPAL® CA-630 (Sigma-Aldrich). The test compounds were dispersed at a concentration of 400 µM (2 % in the case of caffeine) in PBS buffer containing 2 % IGEPAL® CA-630, after which 300 µL of this mixture (or a blank solution) was topically applied onto the porcine skin and allowed to penetrate for 60 min. Next, the skin was removed from the Franz cells, gently washed with PBS, and placed onto the optical window of an inverse confocal Raman microscope (Model 3510 SCA, River Diagnostics) equipped with a 60 × oil-immersion objective. The 785-nm excitation laser was used to acquire spectra in the fingerprint region (400–1800 cm^−1, 5 s integration time) starting from the surface of the skin and extending to a depth of 60 µm (2 µm step size). The acquisition was repeated for at least five positions. The averaged concentration profiles of the flame retardants and reference compounds were extracted by fitting (unrestricted classical least squares, third-order polynomial baseline) the Raman spectra with the reference spectra of keratin (as representative of all proteins), water, ceramide 3, cholesterol (as representatives of all lipids), natural moisturizing factor (NMF; fixed composition), lactate, urea, and solid test compounds using Skin Tools 2.0 software (River Diagnostics). The concentrations of the test substances are given as the molar fraction relative to keratin rather than correcting for the Raman signal attenuation using mathematical models (Franzen et al. [2013]). The response factors of the test compounds were determined against BSA solutions assuming similar Raman cross sections for keratin and BSA as described in the literature (Caspers et al. [2001]; Fleischli et al. [2013], [2015]). Because EDA-DOPO, ETA-DOPO, and EG-DOPO were only partially soluble in chloroform, their spectra were calibrated against DOPO with the assumption of the same Raman cross section for the biphenyl group. Because of the nature of the unrestricted fit, negative fitting coefficients can be obtained and the values must be compared to those of the blank sample. The fitting coefficients of the blank, untreated skin were also used to estimate the level of detection. The depth resolution of the confocal microscope was determined to be 8 µm at FWHM, leaving an uncertainty of approximately 4 µm in differentiating between truly permeated compounds and compounds sitting at the surface of the skin.

human neural crest cells = system: human neural crest cells; set-up: method as in Zimmer et al. [2014]; details: concentrations as high as 100 µM; ref Zimmer et al. [2014]; cited from earlier work
Daphnia magna = details: water-soluble fraction of a 1000 mg/L suspension (approximately 2 mM), 48 h; ref Waaijers et al. [2013a], [b]; cited from earlier work
[3] = system: rat adrenomedullary pheochromocytoma PC12 cells; details: PC12, 24 h, maximal concentration 100 µM; ref Hendriks et al. [2014]; cited from earlier work
[4] = system: rat neuroblastoma B35 cells; details: B35, 24 h, maximal concentration 100 µM; ref Hendriks et al. [2014]; cited from earlier work

| SMILES | cell viability [1] | neurite integrity [1] | maximal penetration depth [2] | penetration/accumulation into porcine ear skin [2] | concentration moderately affecting neurite mass and reducing cell viability [1] | further results |
| --- | --- | --- | --- | --- | --- | --- |
| O=P1(OCCOP2(=O)Oc3ccccc3-c3ccccc32)Oc2ccccc2-c2ccccc21 (stereo not drawn) [EG-DOPO, 6,6′-(ethane-1,2-diylbis(oxy))bis(6H-dibenzo[c,e][1,2]oxaphosphinine-6-oxide)] | significantly affected | significantly affected |  |  |  |  |
| Brc1ccc(Oc2cc(Br)c(Br)cc2Br)c(Br)c1 [PBDE-99, reference compound] | significantly affected | significantly affected | less than 8 µm | moderate accumulation |  | NCC migration and cell death (human neural crest cells): inhibited migration in the absence of cell death |
| O=P1(NCCNP2(=O)Oc3ccccc3-c3ccccc32)Oc2ccccc2-c2ccccc21 (stereo not drawn) [EDA-DOPO, 6,6′-(ethane-1,2-diylbis(azanediyl))bis(6H-dibenzo[c,e][1,2]oxaphosphinine-6-oxide)] |  |  |  |  | > 50 µM |  |
| O=P1(NCCOP2(=O)Oc3ccccc3-c3ccccc32)Oc2ccccc2-c2ccccc21 (stereo not drawn) [ETA-DOPO, 6-(2-((6-oxido-6H-dibenzo[c,e][1,2]oxaphosphinin-6-yl)amino)ethoxy)-6H-dibenzo[c,e][1,2]oxaphosphinine 6-oxide] |  |  | less than 8 µm | significant accumulation | > 50 µM |  |
| O=[PH]1Oc2ccccc2-c2ccccc21 (stereo not drawn) [DOPO, 9,10-dihydro-9-oxa-10-phosphaphenanthrene-10-oxide] |  |  |  |  | > 50 µM | influence on daphnid viability (Daphnia magna): did not significantly influence viability; alterations in cell viability, generation of reactive oxygen species, or intracellular Ca2+ levels [3]: no signs of alterations; alterations in cell viability, generation of reactive oxygen species, or intracellular Ca2+ levels [4]: no signs of alterations |
